Test results published in patent US7812045B2, “Antifungal triazole derivatives” (Daewoong Pharmaceutical Co., Ltd., priority 2005, dated 2010).
Converted amounts (≈) assume the structure as drawn.

Key:
[1] = test system: Aspergillus flavus ATCC MYA-1004; test: In vitro assay for antifungal activity (MIC90); format: cell-based; conditions: RPMI 1640, growth read after 48 hours, duplicate; for MIC90: read-out: MIC90 (concentration at which 90% of the fungi were inhibited compared to the negative control)
Method: (§1) Fungal strains to be tested were inoculated onto Sabouraud dextrose agar, YM agar, and potato dextrose agar and cultured at 35° C. for two to three days. Individual single colonies of the yeast fungi selected out of the cultured strains were suspended in 5 ml of 0.85% sterile saline, followed by correction to adjust the absorbance thereof at 530 nm to 0.108. The suspensions were diluted serially by 1:50 and then 1:20 in RPMI 1640 media to prepare liquid inocula ranging in cell count from 1.0×10^3 to 5.0×10^3 CFU/ml. As for filamentous fungi, their spores were suspended in 0.85% sterile saline and the suspensions were corrected with sterile saline to show optical transmittance at 530 nm of 80 to 82%. A dilution of 1:50 was made with RPMI 1640 media to prepare liquid inocula having cell counts from […] to 5×10^4 CFU/ml.
(§2) Antifungal samples were prepared by diluting the compounds of the present inventions in RPMI 1640 media to serial concentrations from 0.0625 to 32 μg/ml. As a vehicle, DMSO was contained in a final concentration of 1% (V/V) in the antifungal samples. 0.1 ml of each of the dilutions in series was added to equal volume of each of the fungal inocula.

[2] = test system: Aspergillus fumigatus ATCC MYA-1163; test: In vitro assay for antifungal activity (MIC90); format: cell-based; conditions: RPMI 1640, growth read after 48 hours, duplicate; for MIC90: read-out: MIC90 (concentration at which 90% of the fungi were inhibited compared to the negative control)
Method: as §1, §2

[3] = test system: Aspergillus niger ATCC 9142; test: In vitro assay for antifungal activity (MIC90); format: cell-based; conditions: duplicate; for MIC90 (concentration at which 90% of the fungi were inhibited compared to the negative control): RPMI 1640, growth read after 48 hours; for MIC90: ATCC9142, RPMI 1640, growth read after 48 hours, read-out: MIC90 (concentration at which 90% of the fungi were inhibited compared to the negative control)
Method: as §1, §2

[4] = test system: Aspergillus terreus ATCC 28301; test: In vitro assay for antifungal activity (MIC90); format: cell-based; conditions: duplicate; for MIC90 (concentration at which 90% of the fungi were inhibited compared to the negative control): RPMI 1640, growth read after 48 hours; for MIC90: ATCC28301, RPMI 1640, growth read after 48 hours, read-out: MIC90 (concentration at which 90% of the fungi were inhibited compared to the negative control)
Method: as §1, §2

[5] = test system: Candida albicans ATCC 32033; test: In vitro assay for antifungal activity (MIC90); format: cell-based; conditions: duplicate; for MIC90 (concentration at which 90% of the fungi were inhibited compared to the negative control): RPMI 1640, growth read after 24 hours; for MIC90: ATCC32033, RPMI 1640, growth read after 24 hours, read-out: MIC90 (concentration at which 90% of the fungi were inhibited compared to the negative control)
Method: as §1, §2

[6] = test system: Candida glabrata ATCC 34138; test: In vitro assay for antifungal activity (MIC90); format: cell-based; conditions: duplicate; for MIC90 (concentration at which 90% of the fungi were inhibited compared to the negative control): RPMI 1640, growth read after 24 hours; for MIC90: Nakaseomyces glabratus, ATCC34138, RPMI 1640, growth read after 24 hours, read-out: MIC90 (concentration at which 90% of the fungi were inhibited compared to the negative control)
Method: as §1, §2

[7] = test system: Candida krusei ATCC 6258; test: In vitro assay for antifungal activity (MIC90); format: cell-based; conditions: duplicate; for MIC90 (concentration at which 90% of the fungi were inhibited compared to the negative control): RPMI 1640, growth read after 24 hours; for MIC90: Pichia kudriavzevii, ATCC6258, RPMI 1640, growth read after 24 hours, read-out: MIC90 (concentration at which 90% of the fungi were inhibited compared to the negative control)
Method: as §1, §2

[8] = test system: Cryptococcus neoformans ATCC 4065; test: In vitro assay for antifungal activity (MIC90); format: cell-based; conditions: for MIC90 (concentration at which 90% of the fungi were inhibited compared to the negative control): RPMI 1640, duplicate; for MIC90: ATCC4065, RPMI 1640, duplicate, read-out: MIC90 (concentration at which 90% of the fungi were inhibited compared to the negative control)
Method: as §1, §2

[9] = test system: Candida albicans (ATCC 36082); test: In vivo assay for antifungal activity (survival of infected mice); conditions: ICR mice infected i.v. with Candida albicans ATCC 36082; 20 mg/kg orally once a day for seven days (day 0 to day 6); groups of 10
Method: Candida albicans (ATCC 36082) was grown in YM broth on a rotary shaker (200 rpm, 26° C.) for about 12 hours to a concentration of 2.5×10^7 CFU/ml and used to infect ICR mice at a dose of 0.2 ml/head via caudal veins. Suspensions or solutions of the azole compounds in a 25% beta-hydroxypropyl methylcellulose base were orally administered at a dose of 20 mg/kg to respective infected ICR mice in groups of 10, the condition and body weights of the mice were monitored, and autopsies were finally conducted. For a negative control, the vehicle alone was used while fluconazole was administered to a positive control. The mice were inoculated once with the fungal preparation on the day of commencement of the administration. The test materials of interest and the positive control material were orally administered to the inoculated mice once a day for seven days from day 0 to day 6, with the first oral administration made five hours after the fungal inoculation (day 0). The periods of time for which the infected mice lived were counted.
The number of mice which survived the fungal infection for 21 days following the inoculation was represented as % survival for each test group, and the results are given in Table 11, below. All members of the negative control were dead 8 days after the fungal infection, while all of the groups administered with Compound 50 were dead 18 days after the fungal infection.

[10] = Assay for acute toxicity; format: in vivo; conditions: mice; oral administration, to a dose of 1000 mg/kg; observed for two weeks; suspension in 25% beta-hydroxypropyl methylcellulose base or polyethylene glycol 400

SMILES | MIC90 (concentration at which 90% of the fungi were inhibited compared to the negative control) [1] [mg/L] | MIC90 (concentration at which 90% of the fungi were inhibited compared to the negative control) [2] [mg/L] | MIC90 (concentration at which 90% of the fungi were inhibited compared to the negative control) [3] [mg/L] | MIC90 (concentration at which 90% of the fungi were inhibited compared to the negative control) [4] [mg/L] | MIC90 (concentration at which 90% of the fungi were inhibited compared to the negative control) [5] | MIC90 (concentration at which 90% of the fungi were inhibited compared to the negative control) [6] [mg/L] | MIC90 (concentration at which 90% of the fungi were inhibited compared to the negative control) [7] [mg/L] | MIC90 (concentration at which 90% of the fungi were inhibited compared to the negative control) [8] [mg/L] | % Survival on Day 21 [9] [%] | acute toxicity: toxic syndromes observed [10] | MIC90 [1] [mg/L] | MIC90 [2] [mg/L] | MIC90 [3] [mg/L] | MIC90 [4] [mg/L] | MIC90 [5] [mg/L] | MIC90 [6] [mg/L] | MIC90 [7] [mg/L] | MIC90 [8] [mg/L]
C[C@@H](n1ncc2cc(N(C)C)ccc21)[C@](O)(Cn1cncn1)c1ccc(F)cc1F [Example 310] | 1 | 2 | 2 | 2 | 0.063 mg/L | 8 | 1 | 0.5 | 40 | no toxic syndromes |  |  |  |  |  |  |  | 
C[C@@H](n1ncc2cc(NCC3CCCCC3)ccc21)[C@](O)(Cn1cncn1)c1ccc(F)cc1F [Example 309] | 2 | 8 | 16 | 4 | ≦0.015 μg/ml | 8 | 1 | 0.5 |  |  |  |  |  |  |  |  |  | 
C[C@@H](n1cc2cc(F)ccc2n1)[C@](O)(Cn1cncn1)c1ccc(F)cc1F [Example 56] | 2 | 0.5 | 2 | 2 | ≦0.015 μg/ml | 2 | 1 | 0.125 |  |  |  |  |  |  |  |  |  | 
C[C@@H](n1ncc2cc(NCc3ccc(F)cc3F)ccc21)[C@](O)(Cn1cncn1)c1ccc(F)cc1F [Example 250] | 0.5 | 1 | 4 | 2 | ≦0.015 μg/ml | 8 | 0.5 | 0.25 |  |  |  |  |  |  |  |  |  | 
Cc1nn([C@H](C)[C@](O)(Cn2cncn2)c2ccc(F)cc2F)c2ccc([N+](=O)[O-])cc12 [Example 106, (2R,3R)-2-(2,4-Difluorophenyl)-3-(3-methyl-5-nitro-1H-indazol-1-yl)-1-(1H-1,2,4-triazol-1-yl)butan-2-ol] |  |  |  |  |  |  |  |  |  |  | 8 (≈ 18.7 µM) | 8 (≈ 18.7 µM) | 16 (≈ 37.3 µM) | 4 (≈ 9.34 µM) | 0.031 (≈ 0.0724 µM) | 8 (≈ 18.7 µM) | 4 (≈ 9.34 µM) | 0.5 (≈ 1.17 µM)
C[C@@H](n1ncc2cc(NCc3ccc(F)cc3)ccc21)[C@](O)(Cn1cncn1)c1ccc(F)cc1F [Example 244] | 0.5 | 0.5 | 2 | 1 | ≦0.015 μg/ml | 8 | 0.5 | 0.25 |  |  |  |  |  |  |  |  |  | 
CCc1c2cc(F)ccc2nn1[C@H](C)[C@](O)(Cn1cncn1)c1ccc(F)cc1F [Example 100] | 16 | 16 | >16 | 16 | ≦0.015 μg/ml | 8 | 4 | 0.25 |  |  |  |  |  |  |  |  |  | 
C[C@@H](n1ncc2cc(NCc3ccc(OC(F)(F)F)cc3)ccc21)[C@](O)(Cn1cncn1)c1ccc(F)cc1F [Example 247] | 1 | 1 | 4 | 2 | ≦0.015 μg/ml | 8 | 0.5 | 0.25 |  |  |  |  |  |  |  |  |  | 
OC(Cn1cncn1)(Cn1cncn1)c1ccc(F)cc1F [Fluconazole, fluconazole, reference compound] |  |  |  |  |  |  |  |  | 20 |  | > 128 | > 128 | > 128 | > 128 | 1 (≈ 3.27 µM) | > 32 | > 8 | 8 (≈ 26.1 µM)
Cc1c2cc(F)ccc2nn1[C@H](C)[C@](O)(Cn1cncn1)c1ccc(F)cc1F [Example 72] | 8 | 4 | 8 | 4 | 0.031 mg/L | 8 | 8 | 1 |  |  |  |  |  |  |  |  |  | 
